# Test results as given in patent US20250064890A1, “PROTEIN COMPOSITIONS FOR THE TREATMENT OF INFLAMMATORY DISEASES” (Unichem Laboratories Limited, priority 2021, published 2025).
# Tests used:
# NF-kB [1] = assay: Multiplex analysis, chemotherapy (5-FU), TR146 cell lysates; assay type: cell-based, human
# Description: (§1) Oral buccal mucosal cells (TR146) cells were incubated overnight at 37° C. in 5% CO2 incubator. […] The cells were then stimulated with 5-FU (10 mM) for another 24h for chemotherapy and with gamma radiation (3.5 kGy) using Cobalt 60 for radiotherapy. After 24 h, cell culture supernatants were collected from each well and stored at −20° C. till multiplex analysis. For NF-kB estimations, cell lysates were prepared. Levels of biomarkers were estimated using Magpix® multiplex machine. The cells treated with Amifostine (along with 5-FU or radiation) were considered as positive control (PC). Untreated cells (5-FU or radiation alone treated) were used as negative control (NC).
# (§2) The percent modulation in each sample was determined as follows:
# (§3) [{Concentration of biomarkers (pg/ml) in Control cells (5-FU or radiation alone treated)−Concentration of biomarkers (pg/ml) in SEQ ID NO: 2+5-FU or radiation treated cells)}/Concentration of biomarkers (pg/ml) in Control cells (5-FU or radiation alone treated)]*100
# [2] = system: oral (buccal) mucosa cells (TR146); conditions: human, 24 h
# Description: Non-cytotoxic concentration of recombinant lectin having the amino acid sequence of SEQ ID NO: 2 was determined by treating oral (buccal) mucosa cells (TR146) with varying concentration of SEQ ID NO: 2 for 24 hrs and determining the cell viability using MTT assay.
# NF-kB [3] = assay: Multiplex analysis, radiotherapy, TR146 cell lysates; assay type: cell-based, human
# Description: as §1, §2, §3
# [4] = system: oral (buccal) mucosa cells (TR146); assay: Sub(G0/G1) cell population (cell cycle) against 5-FU induced damage; assay type: cell-based, human; conditions: for % Decrease in Apoptotic cells (with respect to control): Sub G0/G1
# Description: To determine the effect of test item on cell cycle, oral buccal mucosal cells (TR146) were incubated overnight in 5% CO2 incubator at 37° C. for 24 h. […] After 24 h of treatment, cells were exposed to chemotherapy (5-FU 10 mM) for 24 h or radiotherapy (Gamma radiation (3.5 kGy) using Cobalt 60) for 2 h.
# After incubation, cells were harvested by trypsinization and processed for Cell cycle assay. Accordingly, cells were harvested into prelabeled centrifuge tubes and centrifuged at 450 g for 5 min at room temperature (RT, low brake). The supernatants were removed carefully and discarded. 1 ml of 1× phosphate buffer saline (PBS) was added to the pellet and resuspended gently to make homogenous suspension. Cells were centrifuged at 450 g for 5 min, RT (low brake). The supernatant was carefully removed leaving behind approx. 100 μl of PBS. Cells were resuspended gently yet thoroughly in residual PBS. Ice-cold 70% ethanol (100 μl) was added drop-wise into cells in each tube while vortexing at low speed (fixation step). Cells stored at 4° C. for 24 h were centrifuged at 450 g for 5 min, RT (low brake). The supernatant was carefully removed without touching the pellet and discarded. 1 ml of 1×PBS was added into pellet and resuspended gently. Cells were incubated for 1 minute at RT. Cells were centrifuged at 450 g for 5 min, RT (low brake). The supernatant was removed carefully without touching the pellet, leaving behind approx. 20-50 μl of PBS. 200 μl of cell cycle reagent was added into each tube. Cells were resuspended gently and mixed. Cells were incubated for 30 min at RT in the dark. The stained samples were transferred into 96-well plates and acquired on flow cytometer (Guava technologies). Percentage of cells in Sub (G0/G1) phase were determined based on the concept that cell cycle reagent contains PI stain, which stains DNA of cells in different phases of cell cycle; Sub (G0/G1), G1, S, G2 and M. Cells in Sub (G0/G1) phase correspond to apoptotic cells. Percent inhibition in apoptotic cells is determined by the formula:
# =[(% Sub(G0/G1) cells in 5-FU/radiation alone)−(% Sub(G0/G1) cells in TI+5-FU/radiation)/% Sub(G0/G1) cells in 5-FU/radiation alone]*100
# [5] = system: oral (buccal) mucosa cells (TR146); assay: Annexin positive cell population against radiation damage; assay type: cell-based, human; conditions: for % Apoptotic cells: Annexin positive
# Description: Oral buccal mucosal cells (TR146) were incubated overnight in 5% CO2 incubator at 37° C. for 24 h. […] After 24 h of treatment, cells were exposed to damage (5-FU 5 mM) for 1.25 h for chemotherapy induced inflammation and exposed to gamma radiation (3.5 kGy) using Cobalt 60 for radiation induced inflammation. After the exposure, the anti-apoptotic effect of SEQ ID NO 2 was determined by restoration of mitochondrial membrane depolarization by JC-1 staining and reduction in apoptotic cell populations (Annexin positive and subG0/G1 cells in cell cycle analysis).
# To determine the reduction in apoptotic cell populations using annexin-v staining cells were gently harvested into pre-labeled sterile centrifuge tubes and centrifuged at 300×g for 5-7 min. Supernatant were discarded and the pellet was resuspended in 200 μl of fresh culture medium. 100 μl of cell suspension was transferred into pre-labeled sterile centrifuge tubes. 100 μl of Annexin-V reagent was added to each tube and incubated for 30 min at RT in dark. Cells stained for Annexin-V were then transferred into 96-well plates and acquired on flow cytometer (Guava technologies). Percentage of Annexin-V positive cells was calculated as follows:
# ={[% Annexin positive cells in 5-FU or radiation alone]−[% Annexin positive cells in (TI+5-FU) or (TI+radiation)]/% Annexin positive cells in 5-FU or radiation alone}*100
# [6] = system: oral (buccal) mucosa cells (TR146); assay: Annexin positive cell population against 5-FU damage; assay type: cell-based, human
# [7] = 0.1 μg/ml + Radiation (3.5 kGy)
compound,measurement,setting,value
"NCCCNCCSP(=O)(O)O [Amifostine, reference compound]",Percentage Inhibition NF-kB,NF-kB [1]; 1 μg/ml + 5-FU (10 mM),100%
same,Percentage Inhibition NF-kB,NF-kB [1]; 10 μg/ml + 5-FU (10 mM),48.2%
same,Percentage Inhibition NF-kB,NF-kB [1]; 50 μg/ml + 5-FU (10 mM),14.2%
same,non-cytotoxic concentration range,[2],1 to 25 µg/mL
same,Percentage Inhibition NF-kB,NF-kB [3]; [7],15.8%
same,Percentage Inhibition NF-kB,NF-kB [3]; 10 μg/ml + Radiation (3.5 kGy),17.7%
same,% Apoptotic cells (Sub G0/G1),[4]; 1 μg/ml + 5FU (10 mM),13%
same,% Decrease in Apoptotic cells (with respect to control),[4]; 1 μg/ml + 5FU (10 mM),58%
same,% Apoptotic cells (Sub G0/G1),[4]; 10 μg/ml + 5FU (10 mM),11.4%
same,% Decrease in Apoptotic cells (with respect to control),[4]; 10 μg/ml + 5FU (10 mM),63.2%
same,% Apoptotic cells (Sub G0/G1),[4]; 25 μg/ml + 5FU (10 mM),17%
same,% Decrease in Apoptotic cells (with respect to control),[4]; 25 μg/ml + 5FU (10 mM),45%
same,% Apoptotic cells (Sub G0/G1),[4]; 50 μg/ml + 5FU (10 mM),15.1%
same,% Decrease in Apoptotic cells (with respect to control),[4]; 50 μg/ml + 5FU (10 mM),50.9%
same,% Decrease in Apoptotic cells (with respect to radiation control),[5]; [7],47.3%
same,% Apoptotic cells,[5]; [7],7.2%
same,% Decrease in Apoptotic cells (with respect to radiation control),[5]; 1 μg/ml + Radiation (3.5 kGy),32.6%
same,% Apoptotic cells,[5]; 1 μg/ml + Radiation (3.5 kGy),9.2%
same,% Decrease in Apoptotic cells (with respect to radiation control),[5]; 10 μg/ml + Radiation (3.5 kGy),63%
same,% Apoptotic cells,[5]; 10 μg/ml + Radiation (3.5 kGy),5.1%
same,% Apoptotic cells (Annexin +ve),[6]; 1 μg/ml + 5FU (10 mM),2.4%
same,% Decrease in Apoptotic cells (with respect to 5-FU),[6]; 1 μg/ml + 5FU (10 mM),85.7%
same,% Apoptotic cells (Annexin +ve),[6]; 10 μg/ml + 5FU (10 mM),2.6%
same,% Decrease in Apoptotic cells (with respect to 5-FU),[6]; 10 μg/ml + 5FU (10 mM),84.5%
same,% Apoptotic cells (Annexin +ve),[6]; 50 μg/ml + 5FU (10 mM),2.8%
same,% Decrease in Apoptotic cells (with respect to 5-FU),[6]; 50 μg/ml + 5FU (10 mM),82.9%
